Experimental findings from patent US9512139B2, “Conformationally constrained, fully synthetic macrocyclic compounds” (POLYPHOR AG, priority 2009, dated 2016) are described below.

Data set [1] in a line: in vitro. As to conditions: both, CD-1, mouse, plasma, 10 µM; for Plasma Stability 240 min mouse [% remain.]: 4 h. Type of data set: in vitro ADME, mouse.
A short description of data set [2]: Metabolic stability assay, CD-1 mouse microsomes. As to conditions: CD-1, mouse, microsomes; for Metabolic Stability T½ [min] mouse / Metabolic Stability 60 min mouse [% remain.]: both, 10 µM; for Metabolic Stability 60 min mouse [% remain.]: 1 h; for half-life at 10 µM: both sexes. The data set is classed as in vitro ADME. As for the experimental part: (§1) 4. Plasma and Metabolic Stability Assays
(§2) The assays were conducted according to literature precedents (F. P. Guengerich, Analysis and Characterization of Enzymes; in: Principles and Methods of Toxicology; A. W. Hayes (Ed.) Raven Press: New York, 1989, 777-813; R. Singh et al., In vitro metabolism of a potent HIV-protease inhibitor (141W94) using rat, monkey and human liver S9, Rapid Commun. Mass Spectrom. 1996, 10, 1019-1026).
(§3) Metabolic Stability Assay
(§4) Microsomes from a human 50 donor mixed gender pool and 1:1 mixtures of microsomes from CD-1 mouse single-gender pools are purchased from Celsis (Belgium). The enzymatic reaction is performed in a buffer containing an NADPH regeneration system and microsomes with the following end concentrations: 100 mM potassium phosphate buffer (all from Sigma), 1 mg/mL glucose-6-phosphate, 1 mg/mL β-nicotinamide adenine dinucleotide phosphate (NADP), 0.65 mg/mL magnesium chloride, 0.8 units/mL of glucose-6-phosphate dehydrogenase (prediluted with 5 mM citrate buffer), 10 μM compound and 1 mg/ml microsomal protein. Compounds are incubated at 37° C. in duplicates and samples are taken after 0, 20 and 60 minutes. After acetonitrile precipitation (2 volumes) and HPLC/MS/MS analysis metabolic turnover is expressed in % of the initial 0 minutes value and half life T½ (min) is calculated. Verapamil for human and propranolol for mouse are used as reference and are assayed with every experimental set.

Data set [3] is described as follows: in vitro. The data set is classed as in vitro ADME, human. As to conditions: human, plasma, 10 µM; for Plasma Stability 240 min hum [% remain.]: 4 h.
Data set [4] is described as follows: Metabolic stability assay, human microsomes. The data set is classed as in vitro ADME. The conditions noted are these: human, microsomes; for Metabolic Stability T½ [min] hum / Metabolic Stability 60 min hum [% remain.]: both, 10 µM; for Metabolic Stability 60 min hum [% remain.]: 1 h; for half-life at 10 µM: both sexes. As for the experimental part: as §1, §2, §3, §4
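Wherever Plasma Stability 240 min mouse [% remain.] is given: sodium citrate stabilized mouse plasma, parent compound quantified by HPLC/MS/MS relative to its peak area at time zero, run in triplicate.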
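Wherever Plasma Stability T½ [min] mouse is given: sodium citrate stabilized mouse plasma, parent compound quantified by HPLC/MS/MS relative to its peak area at time zero, run in triplicate.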

Take `CC(=O)N1CCN([C@H]2CCCN(C)C(=O)c3cccc(c3)OC[C@@H]3C[C@H](O)CN3C2=O)CC1` [Ex. 582, (4S,6S,10S)-10-(4-acetylpiperazino)-6-hydroxy-14-methyl-2-oxa-8,14-diazatricyclo[14.3.1.0^4,8]icosa-1(20),16,18-triene-9,15-dione]: in data set [1], the Plasma Stability T½ [min] mouse was over 240 min and the “Plasma Stability 240 min mouse [% remain.]” value came to 96 % remain. Besides, in data set [2], the Metabolic Stability T½ [min] mouse is over 60 min and the “Metabolic Stability 60 min mouse [% remain.]” value amounted to 98 % remain. In data set [3], the Plasma Stability T½ [min] hum is over 240 min and the “Plasma Stability 240 min hum [% remain.]” value was 100 % remain. In data set [4], the Metabolic Stability T½ [min] hum was over 60 min and the “Metabolic Stability 60 min hum [% remain.]” value is on record as 100 % remain.
For `CN1CC(=O)N2C[C@@H](NC(=O)CN3CCCC3)C[C@H]2COc2ccc(F)cc2C(=O)N(C)[C@@H](C(=O)N2CCCC2)CCC1=O` [Ex. 98, N-[(2S,11R,19aS)-15-fluoro-7,12-dimethyl-5,8,13-trioxo-11-(1-pyrrolidinylcarbonyl)-2,3,6,7,8,9, 10,11,12,13,19,19a-dodecahydro-1H,5H-pyrrolo[2,1-c][1,4,7,12]benzoxatriazacyclopentadecin-2-yl]-2-(1-pyrrolidinyl)acetamide], in data set [1], the Plasma Stability T½ [min] mouse was over 240 min and the “Plasma Stability 240 min mouse [% remain.]” value is on record as 78 % remain. Moreover, in data set [2], the Metabolic Stability T½ [min] mouse is over 60 min and the “Metabolic Stability 60 min mouse [% remain.]” value is 100 % remain. Moreover, in data set [3], the Plasma Stability T½ [min] hum is over 240 min and the “Plasma Stability 240 min hum [% remain.]” value came out at 100 % remain. Further, in data set [4], the Metabolic Stability T½ [min] hum was over 60 min and the “Metabolic Stability 60 min hum [% remain.]” value amounted to 97 % remain.
In general, half-life refers to the time needed for the level to fall by half in the phase considered. A low value points to fast loss. Consider `CN1CCC[C@H](N)C(=O)N2C[C@@H](OCc3ccc(-c4cncnc4)cc3)C[C@H]2COc2cccc(c2)C1=O` [Ex. 577, (4S,6S,10S)-10-amino-14-methyl-6-{[4-(5-pyrimidinyl)benzyl]oxy}-2-oxa-8,14-diazatricyclo[14.3.1.0^4,8]icosa-1(20),16,18-triene-9,15-dione], for which, in data set [1], the Plasma Stability T½ [min] mouse is over 240 min and the “Plasma Stability 240 min mouse [% remain.]” value is recorded as 101 % remain. Also, in data set [2], the half-life at 10 µM came to 0.45 h and the “Metabolic Stability 60 min mouse [% remain.]” value was determined as 25 % remain. In data set [3], the Plasma Stability T½ [min] hum was over 240 min and the “Plasma Stability 240 min hum [% remain.]” value worked out at 87 % remain. In data set [4], the half-life at 10 µM was found to be 0.783 h and the “Metabolic Stability 60 min hum [% remain.]” value is 41 % remain.
Take `CCCCCCCCCC(=O)N[C@H]1C[C@H]2COc3ccc(F)cc3C(=O)N(C)[C@@H](C(=O)NCc3ccc4ccccc4c3)CCC(=O)N(C)CC(=O)N2C1` [Ex. 102, (2S,11R,19aS)-2-(decanoylamino)-15-fluoro-7,12-dimethyl-N-(2-naphthylmethyl)-5,8,13-trioxo-2,3,6,7,8,9,10,11,12,13,19,19a-dodecahydro-1H,5H-pyrrolo[2,1-c][1,4,7,12] benzoxatriazacyclopentadecine-11-carboxamide]: in data set [1], the Plasma Stability T½ [min] mouse was over 240 min and the “Plasma Stability 240 min mouse [% remain.]” value is recorded as 75 % remain. In addition, in data set [2], the half-life at 10 µM amounted to 0.7 h and the “Metabolic Stability 60 min mouse [% remain.]” value is listed as 39 % remain. Moreover, in data set [3], the Plasma Stability T½ [min] hum is over 240 min and the “Plasma Stability 240 min hum [% remain.]” value amounted to 65 % remain. Moreover, in data set [4], the half-life at 10 µM was found to be 0.383 h and the “Metabolic Stability 60 min hum [% remain.]” value was 4 % remain.
For the molecule `CN1CCC[C@H](NC(=O)CC(C)(C)C)C(=O)N2C[C@@H](N)C[C@H]2COc2cccc(c2)C1=O` [Ex. 533, N-[(4S,6S,10S)-6-amino-14-methyl-9,15-dioxo-2-oxa-8,14-diazatricyclo[14.3.1.0^4,8]icosa-1(20),16,18-trien-10-yl]-3,3-dimethylbutanamide], in data set [1], the Plasma Stability T½ [min] mouse is over 240 min and the “Plasma Stability 240 min mouse [% remain.]” value is recorded as 100 % remain. Besides, in data set [2], the Metabolic Stability T½ [min] mouse is over 60 min and the “Metabolic Stability 60 min mouse [% remain.]” value was 93 % remain. Besides, in data set [3], the Plasma Stability T½ [min] hum is over 240 min and the “Plasma Stability 240 min hum [% remain.]” value is listed as 95 % remain. Further, in data set [4], the Metabolic Stability T½ [min] hum was over 60 min and the “Metabolic Stability 60 min hum [% remain.]” value is reported as 59 % remain.
Turning to `CN(C)CC(=O)N[C@@H]1C[C@H]2COc3cccc(c3)C(=O)N(C)C[C@H](NC(=O)Cc3ccc4ccccc4c3)C(=O)N(C)CC(=O)N2C1` [Ex. 230, 2-(dimethylamino)-N-[(4S,6R,13S)-11,15-dimethyl-13-{[2-(2-naphthyl)acetyl]amino}-9,12,16-trioxo-2-oxa-8,11,15-triazatricyclo[15.3.1.0^4,8]henicosa-1(21),17,19-trien-6-yl]acetamide], in data set [1], the Plasma Stability T½ [min] mouse was over 240 min and the “Plasma Stability 240 min mouse [% remain.]” value worked out at 95 % remain. In addition, in data set [2], the Metabolic Stability T½ [min] mouse is over 60 min and the “Metabolic Stability 60 min mouse [% remain.]” value is listed as 90 % remain. Besides, in data set [3], the Plasma Stability T½ [min] hum was over 240 min and the “Plasma Stability 240 min hum [% remain.]” value is 100 % remain. In data set [4], the Metabolic Stability T½ [min] hum was over 60 min and the “Metabolic Stability 60 min hum [% remain.]” value was 61 % remain.
Take `CC(=O)N[C@H]1CN(C)C(=O)c2cccc(c2)OC[C@@H]2C[C@H](NC(=O)CN(C)C)CN2C(=O)CN(C)C1=O` [Ex. 208, N-[(4S,6S,13S)-13-(acetylamino)-11,15-dimethyl-9,12,16-trioxo-2-oxa-8,11,15-triazatricyclo[15.3.1.0^4,8]henicosa-1(21),17,19-trien-6-yl]-2-(dimethylamino)acetamide]: in data set [1], the Plasma Stability T½ [min] mouse was over 240 min and the “Plasma Stability 240 min mouse [% remain.]” value was found to be 90 % remain. Moreover, in data set [2], the Metabolic Stability T½ [min] mouse is over 60 min and the “Metabolic Stability 60 min mouse [% remain.]” value is reported as 100 % remain. Besides, in data set [3], the Plasma Stability T½ [min] hum is over 240 min and the “Plasma Stability 240 min hum [% remain.]” value is reported as 98 % remain. Further, in data set [4], the Metabolic Stability T½ [min] hum is over 60 min and the “Metabolic Stability 60 min hum [% remain.]” value is given as 84 % remain.
`CN1CC(=O)N2C[C@H](NC(=O)CCC(=O)O)C[C@H]2COc2ccc(cc2)C(=O)N(C)[C@H](C(=O)NCc2ccncc2)CCC1=O` [Ex. 267, 4-{[(4S,6R,15S)-11,16-dimethyl-9,12,17-trioxo-15-{[(4-pyridinylmethyl)amino]carbonyl}-2-oxa-8,11,16-triazatricyclo[16.2.2.0^4,8]docosa-1(20),18,21-trien-6-yl]amino}-4-oxobutanoic acid]: in data set [1], the Plasma Stability T½ [min] mouse is over 240 min and the “Plasma Stability 240 min mouse [% remain.]” value is 79 % remain. Moreover, in data set [2], the Metabolic Stability T½ [min] mouse was over 60 min and the “Metabolic Stability 60 min mouse [% remain.]” value was found to be 100 % remain. In addition, in data set [3], the Plasma Stability T½ [min] hum is over 240 min and the “Plasma Stability 240 min hum [% remain.]” value is listed as 75 % remain. Besides, in data set [4], the Metabolic Stability T½ [min] hum is over 60 min and the “Metabolic Stability 60 min hum [% remain.]” value is on record as 99 % remain.
